# Test results published in BindingDB's records for doi:10.7270/Q2ZW1JC6 (Nmmlsc, 2016).
# Target: Ras-related protein Rab-2A (Canis lupus familiaris, UniProt P61105)
# Assay: Rab2 wildtype GTP-binding inhibitors, SAR follow-up, biochemical, pyrazoline series, Bodipy-FL-GTP, flow cytometry, multiplex (AID 2045)
# Chain of Ras-related protein Rab-2A (P61105 whole entry): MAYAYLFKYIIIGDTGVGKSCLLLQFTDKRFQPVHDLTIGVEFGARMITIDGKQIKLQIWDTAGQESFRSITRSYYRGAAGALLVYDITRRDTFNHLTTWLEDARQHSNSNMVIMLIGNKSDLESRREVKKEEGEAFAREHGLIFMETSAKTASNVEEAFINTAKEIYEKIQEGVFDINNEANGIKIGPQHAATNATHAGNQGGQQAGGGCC
row,SMILES,EC50 [µM]
1,COc1ccc(C2CC(c3ccncc3)=NN2c2ccc(S(N)(=O)=O)cc2)cc1 (configuration not stated),> 30
2,COc1ccc(C2CC(c3ccccc3Br)=NN2c2ccc(S(N)(=O)=O)cc2)cc1 (configuration not stated) [UNM-0000306112],> 30
3,"COc1ccc(C2CC(c3ccsc3)=NN2c2ccc(S(N)(=O)=O)cc2)cc1 (configuration not stated) [4-[3-(4-methoxyphenyl)-5-thiophen-3-yl-3,4-dihydropyrazol-2-yl]benzenesulfonamide]",> 30
4,CN(C)c1ccc(C2CC(c3ccc(Br)cc3)=NN2c2ccccc2)cc1 (configuration not stated) [UNM-0000305846],> 30
5,"Fc1ccccc1C1CC(c2ccc(Br)cc2)=NN1c1ccc(Br)cc1 (configuration not stated) [2,5-bis(4-bromophenyl)-3-(2-fluorophenyl)-3,4-dihydropyrazole]",> 30
6,COc1ccc(C2CC(c3ccc(Br)cc3)=NN2c2ccc(S(N)(=O)=O)cc2)cc1 (configuration not stated) [UNM-0000306138],> 30
7,CCc1ccc(C2=NN(c3ccc(S(N)(=O)=O)cc3)C(c3ccc(F)cc3)C2)cc1 (configuration not stated),> 30
8,COc1ccc(C2CC(c3cccc(N(C)C)c3)=NN2c2ccc(S(N)(=O)=O)cc2)cc1 (configuration not stated),> 30
9,COc1ccc(C2CC(c3ccc(Cl)cc3)=NN2c2ccccc2)cc1OC (configuration not stated) [UNM-0000305858],> 30
10,COc1ccc(C2CC(c3ccccc3C)=NN2c2ccc(S(N)(=O)=O)cc2)cc1 (configuration not stated) [UNM-0000306152],> 30
11,COc1ccc(C2CC(c3ccccc3F)=NN2c2ccc(S(N)(=O)=O)cc2)cc1 (configuration not stated) [UNM-0000306110],> 30
12,"COc1ccc(C2=NN(c3ccc(Cl)c(Cl)c3)C(c3ccc(OC)cc3)C2)cc1 (configuration not stated) [2-(3,4-dichlorophenyl)-3,5-bis(4-methoxyphenyl)-3,4-dihydropyrazole]",> 30
13,COc1ccc(-c2cc(-c3ccccc3)nn2-c2ccc(S(N)(=O)=O)cc2)cc1 [4-[5-(4-methoxyphenyl)-3-phenylpyrazol-1-yl]benzenesulfonamide],> 30
14,COc1ccc(C2CC(c3ccc(Cl)cc3)=NN2c2ccc(S(N)(=O)=O)cc2)cc1 (configuration not stated),> 30

# Further lines, results first:
row,EC50 [µM],SMILES
1,> 30,Cc1cccc(N2N=C(c3ccccc3)CC2c2ccccc2)c1 (configuration not stated) [UNM-0000305835]
2,> 30,CN(C)c1ccc(C2C[C-](c3ccccc3)N=[N+]2c2ccc([N+](=O)[O-])cc2)cc1 (configuration not stated)
3,> 30,Cc1ccccc1[N+]1=N[C-](c2ccccc2)CC1c1cccc([N+](=O)[O-])c1 (configuration not stated) [UNM-0000305854]
4,> 30,"COc1ccccc1C1CC(c2ccccc2)=NN1c1ccc(S(N)(=O)=O)cc1 (configuration not stated) [4-[3-(2-methoxyphenyl)-5-phenyl-3,4-dihydropyrazol-2-yl]benzenesulfonamide]"
5,> 30,Clc1ccc(N2N=C(c3ccccc3)CC2c2ccccc2)cc1 (configuration not stated)
6,> 30,COc1ccc(C2=NN(c3ccccc3)C(c3ccccc3C(F)(F)F)C2)cc1 (configuration not stated)
7,> 30,"O=[N+]([O-])c1cccc(C2C[C-](c3ccc(F)cc3)N=[N+]2c2ccccc2)c1 (configuration not stated) [5-(4-fluorophenyl)-3-(3-nitrophenyl)-2-phenyl-3,4-dihydropyrazole]"
8,> 30,NS(=O)(=O)c1ccc(N2N=C(c3ccccc3)CC2c2cccc(Br)c2)cc1 (configuration not stated) [UNM-0000306147]
